Our source for the IC50 values is patent US20190135793A1, “HETEROCYCLIC INHIBITORS OF KDM5 FOR THE TREATMENT OF DISEASE” (Board of Regents, The University of Texas System, priority 2017, published 2019).

Where two headings read alike, the source gives them in different places.

The IC50 is the concentration at which inhibition is half-maximal.

One experiment addresses T1, KDM4C (Homo sapiens, UniProt Q9H3R0).
T1 construct: Full length of KDM5B and KDM4C protein were purchased from Active Motif; purchased Active Motif 31858
T1 sequence (Q9H3R0 1-1056): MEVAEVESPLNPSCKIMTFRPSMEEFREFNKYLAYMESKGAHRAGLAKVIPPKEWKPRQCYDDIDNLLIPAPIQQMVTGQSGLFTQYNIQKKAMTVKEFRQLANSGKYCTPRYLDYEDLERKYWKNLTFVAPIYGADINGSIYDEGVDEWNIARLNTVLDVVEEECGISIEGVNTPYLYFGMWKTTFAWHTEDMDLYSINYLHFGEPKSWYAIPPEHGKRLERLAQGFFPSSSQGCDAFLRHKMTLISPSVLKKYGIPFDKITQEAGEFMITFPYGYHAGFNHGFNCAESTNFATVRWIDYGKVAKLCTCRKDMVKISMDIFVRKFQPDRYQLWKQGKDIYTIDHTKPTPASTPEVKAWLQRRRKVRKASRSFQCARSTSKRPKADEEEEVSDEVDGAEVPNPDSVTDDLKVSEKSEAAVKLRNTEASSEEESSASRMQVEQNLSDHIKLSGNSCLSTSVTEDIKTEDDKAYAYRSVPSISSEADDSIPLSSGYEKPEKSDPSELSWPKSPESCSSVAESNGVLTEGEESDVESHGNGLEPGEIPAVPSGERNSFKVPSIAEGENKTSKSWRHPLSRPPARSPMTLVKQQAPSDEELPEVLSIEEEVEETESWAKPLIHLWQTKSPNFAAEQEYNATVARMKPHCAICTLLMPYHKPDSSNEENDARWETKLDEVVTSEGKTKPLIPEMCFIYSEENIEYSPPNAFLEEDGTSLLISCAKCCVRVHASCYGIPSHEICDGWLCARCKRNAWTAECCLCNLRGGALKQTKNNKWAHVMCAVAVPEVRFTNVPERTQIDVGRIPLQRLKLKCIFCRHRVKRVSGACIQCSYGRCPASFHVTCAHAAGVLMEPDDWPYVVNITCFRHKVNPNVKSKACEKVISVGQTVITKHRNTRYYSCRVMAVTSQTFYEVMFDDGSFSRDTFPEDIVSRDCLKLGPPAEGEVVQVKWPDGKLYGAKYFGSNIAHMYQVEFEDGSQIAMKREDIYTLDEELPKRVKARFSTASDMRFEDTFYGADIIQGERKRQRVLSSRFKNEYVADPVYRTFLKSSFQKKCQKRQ
Kind of experiment: KDM4C AlphaScreen assay. Conditions: AlphaScreen; full length KDM4C 0.2 nM; biotinylated H3K9Me3 peptide 3 nM; 30 minutes at room temperature. The format is biochemical. The method, then: (§1) KDM4C and KDM5B AlphaScreen Assay Material and Method
(§2) Compounds disclosed herein were (and can be) screened using the following assay.
Peptides used in all experiments were purchased from Anaspe. Full length of KDM5B and KDM4C protein were purchased from Active Motif: KDM5B (cat#31832) and KDM4C (Cat #31858). Final concentration of KDM5B and KDM4C used in the assay were 0.5 nM and 0.2 nM. Final concentration of peptides for 5B and 4C used in the assay were 3 nM.
AlphaScreen assays was conducted as following protocol: buffer used to make compound plate or DMSO is composed of 50 mM HEPES pH 7.4, 0.003% Tween-20; buffer used to dilute enzyme is composed of 50 mM HEPES pH 7.4, 0.003% Tween-20, 0.01% BSA, 500 μM TCEP; and buffer used to dilute the substrate is composed of 50 mM HEPES pH 7.4, 0.003% Tween-20, (NH4)2Fe(SO4)2 15 μM, alpha-ketoglutaric acid 4 μM and L-ascorbic acid 100 μM. 4 μL of KDM5B or KDM4C protein were added to 384-well OptiPlate by using multiflow, followed by 4 μl of either buffer or compound. Plates were sealed, spun down and incubated at RT for 15 min. 4 μl of biotinylated peptide was added to the plate, the plate was incubated at room temperature for 25 minutes (KDM5B) and 30 minutes (KDM4C) after sealed and spun down. Streptavidin donor beads and acceptor beads were diluted and mixed in the detection buffer with 7.5 mM EDTA, followed by adding 8 μl of acceptor and donor beads mix to the plate, before the plate was sealed and incubated at room temperature for 3 h or overnight at dark. The plate was read on Envision plate reader (PerkinElmer) using Alphascreen protocol. IC50s were calculated in GraphPad Prism 6.

The target of another experiment is T2, KDM5B (Homo sapiens, UniProt Q9UGL1).
T2 construct: Full length of KDM5B and KDM4C protein were purchased from Active Motif; purchased Active Motif 31832
T2 sequence (Q9UGL1 whole entry): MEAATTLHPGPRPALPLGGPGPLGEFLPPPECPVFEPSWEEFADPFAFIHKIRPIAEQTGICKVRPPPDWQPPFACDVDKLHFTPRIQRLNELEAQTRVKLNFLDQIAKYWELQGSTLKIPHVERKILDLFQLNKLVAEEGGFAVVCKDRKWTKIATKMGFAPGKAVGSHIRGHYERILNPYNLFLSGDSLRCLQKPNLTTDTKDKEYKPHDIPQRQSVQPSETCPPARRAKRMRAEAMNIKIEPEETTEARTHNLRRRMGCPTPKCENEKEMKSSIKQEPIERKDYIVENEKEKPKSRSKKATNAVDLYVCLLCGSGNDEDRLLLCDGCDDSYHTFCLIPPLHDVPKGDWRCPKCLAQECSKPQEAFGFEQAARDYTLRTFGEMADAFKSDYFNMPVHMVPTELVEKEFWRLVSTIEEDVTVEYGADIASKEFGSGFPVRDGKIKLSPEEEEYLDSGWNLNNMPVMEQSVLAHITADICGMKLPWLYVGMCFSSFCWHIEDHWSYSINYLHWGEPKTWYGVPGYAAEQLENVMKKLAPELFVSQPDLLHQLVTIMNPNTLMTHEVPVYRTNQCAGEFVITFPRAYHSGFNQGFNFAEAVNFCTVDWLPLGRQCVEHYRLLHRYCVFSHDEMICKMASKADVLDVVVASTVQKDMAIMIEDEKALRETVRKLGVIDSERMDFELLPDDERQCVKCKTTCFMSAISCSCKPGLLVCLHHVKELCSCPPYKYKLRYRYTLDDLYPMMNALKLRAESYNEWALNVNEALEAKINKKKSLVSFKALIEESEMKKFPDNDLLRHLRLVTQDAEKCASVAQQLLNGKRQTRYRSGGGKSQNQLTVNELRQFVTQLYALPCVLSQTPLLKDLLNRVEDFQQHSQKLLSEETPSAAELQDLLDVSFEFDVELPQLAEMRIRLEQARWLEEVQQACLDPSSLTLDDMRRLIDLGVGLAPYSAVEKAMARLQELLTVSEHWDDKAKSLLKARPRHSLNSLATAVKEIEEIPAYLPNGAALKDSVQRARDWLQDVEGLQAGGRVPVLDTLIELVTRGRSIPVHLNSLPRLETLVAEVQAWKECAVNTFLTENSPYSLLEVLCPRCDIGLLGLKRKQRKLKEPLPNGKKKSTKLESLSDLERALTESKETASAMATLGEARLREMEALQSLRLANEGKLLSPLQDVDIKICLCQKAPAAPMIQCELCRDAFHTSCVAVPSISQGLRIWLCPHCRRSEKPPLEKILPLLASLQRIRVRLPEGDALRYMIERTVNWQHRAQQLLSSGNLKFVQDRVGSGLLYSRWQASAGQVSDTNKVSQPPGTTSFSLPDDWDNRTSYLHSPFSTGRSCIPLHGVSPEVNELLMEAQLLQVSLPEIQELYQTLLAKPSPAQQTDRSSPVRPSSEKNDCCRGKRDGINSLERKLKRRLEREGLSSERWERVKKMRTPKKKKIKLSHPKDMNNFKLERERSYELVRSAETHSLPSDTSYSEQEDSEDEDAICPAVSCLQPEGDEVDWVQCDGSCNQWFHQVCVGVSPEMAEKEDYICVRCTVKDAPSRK
Kind of experiment: biochemical. The method, then:
as §1, §2
Peptides used in all experiments were purchased from Anaspe. […] Final concentration of KDM5B and KDM4C used in the assay were 0.5 nM and 0.2 nM. Final concentration of peptides for 5B and 4C used in the assay were 3 nM.
4 μL of KDM5B or KDM4C protein were added to 384-well OptiPlate by using multiflow, followed by 4 μl of either buffer or compound. Plates were sealed, spun down and incubated at RT for 15 min. 4 μl of biotinylated peptide was added to the plate, the plate was incubated at room temperature for 25 minutes (KDM5B) and 30 minutes (KDM4C) after sealed and spun down. Streptavidin donor beads and acceptor beads were diluted and mixed in the detection buffer with 7.5 mM EDTA, followed by adding 8 μl of acceptor and donor beads mix to the plate, before the plate was sealed and incubated at room temperature for 3 h or overnight at dark. The plate was read on Envision plate reader (PerkinElmer) using Alphascreen protocol. IC50s were calculated in GraphPad Prism 6.

The mark [1] stands for this setting: AlphaScreen, full length KDM5B 0.5 nM, biotinylated H3K4Me3 peptide 3 nM, 25 minutes at room temperature, read-out: KDM5B (IC50).

On to `CC(C)Cn1cc(-c2nc(-n3ccnc3)nc(O)c2C(C)C)cn1` [Example 65, 2-(1H-Imidazol-1-yl)-6-[1-(2-methylpropyl)-1H-pyrazol-4-yl]-5-(propan-2-yl)pyrimidin-4-ol], for which the values for the IC50 against KDM4C and against KDM5B were 937 nM and 19 nM, respectively.

`CC(C)c1c(O)nc(-n2ccnc2)nc1OCCN1CCN(C)CC1` [Example 122, 2-(1H-Imidazol-1-yl)-6-[2-(4-methylpiperazin-1-yl)ethoxy]-5-(propan-2-yl)pyrimidin-4-ol]: the IC50 is 1270 nM against KDM4C and 7 nM at KDM5B (setting [1]).

Regarding `CC(C)c1c(O)nc(-n2ccnc2)nc1OCCC1CCOCC1` [Example 131, 2-(1H-Imidazol-1-yl)-6-[2-(oxan-4-yl)ethoxy]-5-(propan-2-yl)pyrimidin-4-ol], the IC50 at KDM4C worked out at 2090 nM; on KDM5B, 27 nM.

`CC(C)Cc1ccc(-c2nc(-n3ccnc3)nc(O)c2C(C)C)cc1` [Example 86, 2-(1H-Imidazol-1-yl)-6-[4-(2-methylpropyl)phenyl]-5-(propan-2-yl)pyrimidin-4-ol]: the figures for the IC50 on KDM4C and on KDM5B (setting [1]) were 10000 nM and 1130 nM, respectively.

Turning to `CC(C)c1c(O)nc(-n2ccnc2)nc1-c1cccc(S(C)(=O)=O)c1` [Example 72, 2-(1H-Imidazol-1-yl)-6-(3-methanesulfonylphenyl)-5-(propan-2-yl)pyrimidin-4-ol], the figures for the IC50 on KDM4C and at KDM5B (setting [1]) were 4470 nM and 24 nM, respectively.

In the case of `CC(C)c1c(O)nc(-n2ccnc2)nc1-c1cnn(C2CC2)c1` [Example 47, 6-(1-Cyclopropyl-1H-pyrazol-4-yl)-2-(1H-imidazol-1-yl)-5-(propan-2-yl)pyrimidin-4-ol], the IC50 at KDM4C is 771 nM; against KDM5B, 11 nM.

As to `CC(C)c1cnc(-c2cncs2)nc1O` [Example 157, 5-(Propan-2-yl)-2-(1,3-thiazol-5-yl)-pyrimidin-4-ol], the IC50 was 5820 nM on KDM4C and 805 nM on KDM5B (setting [1]).

Turning to `CC(CN1CCOCC1)Oc1nc(-n2ccnc2)nc(O)c1C(C)C` (centres unmarked) [Example 138, 2-(1H-Imidazol-1-yl)-6-{[1-(morpholin-4-yl)propan-2-yl]oxy}-5-(propan-2-yl)-pyrimidin-4-ol], the IC50 at KDM4C amounted to 5560 nM; against KDM5B, 65 nM.

For `CC(C)c1c(O)nc(-n2ccnc2)nc1-c1cccnc1` [Example 70, 2-(1H-Imidazol-1-yl)-5-(propan-2-yl)-6-(pyridin-3-yl)pyrimidin-4-ol], the IC50 against KDM4C is 2660 nM; against KDM5B, 22 nM.

Regarding `Oc1nc(-c2cncs2)ncc1C(F)(F)F` [Example 33, 2-(1,3-Thiazol-5-yl)-5-(trifluoromethyl)pyrimidin-4-ol], the IC50 against KDM4C stood at 3640 nM; against KDM5B, 2530 nM.

As for `CNC(=O)c1ccc(-c2nc(-n3ccnc3)nc(O)c2C(C)C)cn1` [Example 120, 5-[6-Hydroxy-2-(1H-imidazol-1-yl)-5-(propan-2-yl)pyrimidin-4-yl]-N-methyl-pyridine-2-carboxamide], the IC50 against KDM4C was found to be 2190 nM; at KDM5B (setting [1]), 18 nM.

Turning to `CC(C)c1c(O)nc(-n2ccnc2)nc1OC1CCOC1` (centres unmarked) [Example 135, 2-(1H-Imidazol-1-yl)-6-(oxolan-3-yloxy)-5-(propan-2-yl)pyrimidin-4-ol], the IC50 on KDM4C is 2050 nM; at KDM5B, 47 nM.

With `Cc1nc(-n2ccnc2C)nc(O)c1C(C)C` [Example 148, 6-Methyl-2-(2-methyl-1H-imidazol-1-yl)-5-(propan-2-yl)pyrimidin-4-ol], the figures for the IC50 against KDM4C and on KDM5B were 9460 nM and 480 nM, respectively.

Regarding `CC(C)c1c(O)nc(-n2ccnc2)nc1-c1cnn(CC(=O)NCCN2CCCC2=O)c1` [Example 109, 2-{4-[6-Hydroxy-2-(1H-imidazol-1-yl)-5-(propan-2-yl)pyrimidin-4-yl]-1H-pyrazol-1-yl}-N-[2-(2-oxo-pyrrolidin-1-yl)ethyl]-acetamide], the results for the IC50 at KDM4C and on KDM5B (setting [1]) were 1540 nM and 20 nM, respectively.

With `COc1nc(-n2ccnc2)nc(O)c1C(C)C` [Example 12, 2-(1H-Imidazol-1-yl)-5-isopropyl-6-methoxypyrimidin-4-ol], the IC50 came out at 1460 nM at KDM4C and 107 nM against KDM5B.

For the compound `CC(C)c1c(O)nc(-n2ccnc2)nc1-c1cnn(CC(=O)N2CCC(C#N)C2)c1` (centres unmarked) [Example 101, 1-(2-{4-[6-Hydroxy-2-(1H-imidazol-1-yl)-5-(propan-2-yl)pyrimidin-4-yl]-1H-pyrazol-1-yl}acetyl)-pyrrolidine-3-carbonitrile], the IC50 is 881 nM at KDM4C and 12 nM against KDM5B.

As for `COC(=O)COc1nc(-n2ccnc2)nc(O)c1C(C)C` [Example 133, Methyl 2-{[6-hydroxy-2-(1H-imidazol-1-yl)-5-(propan-2-yl)pyrimidin-4-yl]oxy}acetate], the IC50 against KDM4C was determined as 1330 nM; against KDM5B, 30 nM.

In the case of `Cc1nc(-n2ccnc2N)nc(O)c1C(C)C` [Example 23, 2-(2-aminoimidazol-1-yl)-5-isopropyl-6-methyl-pyrimidin-4-ol], the IC50 was determined as 775 nM at KDM4C and 24 nM on KDM5B.

`CC(C)c1c(O)nc(-n2ccnc2)nc1-c1cnn(CC(=O)NCCN2CCCC2)c1` [Example 6, 2-(4-(6-Hydroxy-2-(1H-imidazol-1-yl)-5-isopropylpyrimidin-4-yl)-1H-pyrazol-1-yl)-N-(2-(pyrrolidin-1-yl)ethyl)acetamide]: the IC50 on KDM4C was 214 nM; against KDM5B, 4 nM.

For the compound `CC(=O)N1CCN(CCOc2nc(-n3ccnc3)nc(O)c2C(C)C)CC1` [Example 125, 1-[4-(2-{[6-Hydroxy-2-(1H-imidazol-1-yl)-5-(propan-2-yl)pyrimidin-4-yl]oxy}ethyl)-piperazin-1-yl]ethan-1-one], the IC50 against KDM4C was 2320 nM; at KDM5B (setting [1]), 14 nM.

For the compound `CC(C)c1c(O)nc(-n2ccnc2)nc1OCCC1CCN(CCCC(F)(F)F)CC1` [Example 13, 2-(1H-imidazol-1-yl)-5-(propan-2-yl)-6-{2-[1-(4,4,4-trifluorobutyl)piperidin-4-yl]ethoxy}pyrimidin-4-ol], the IC50 was found to be 1140 nM on KDM4C and 12 nM on KDM5B.

Turning to `CC(C)c1c(O)nc(-n2ccnc2-c2ccccn2)nc1Cl` [Example 2, 6-Chloro-5-(propan-2-yl)-2-[2-(pyridin-2-yl)-1H-imidazol-1-yl]pyrimidin-4-ol], the IC50 on KDM4C was found to be 3890 nM; against KDM5B, 229 nM.
